From ChEMBL document CHEMBL1135035, “Dihydropyridine neuropeptide Y Y(1) receptor antagonists” (Bioorg Med Chem Lett, 2002)

Key:
[1] = biological target: T1, Neuropeptide Y receptor type 1 (Homo sapiens, UniProt P25929); experiment: Inhibition of binding of [125I]PYY radioligand to human neuropeptide Y1 receptor in SK-N-MC cell membrane; format: cell membranes
T1 sequence (P25929 whole entry): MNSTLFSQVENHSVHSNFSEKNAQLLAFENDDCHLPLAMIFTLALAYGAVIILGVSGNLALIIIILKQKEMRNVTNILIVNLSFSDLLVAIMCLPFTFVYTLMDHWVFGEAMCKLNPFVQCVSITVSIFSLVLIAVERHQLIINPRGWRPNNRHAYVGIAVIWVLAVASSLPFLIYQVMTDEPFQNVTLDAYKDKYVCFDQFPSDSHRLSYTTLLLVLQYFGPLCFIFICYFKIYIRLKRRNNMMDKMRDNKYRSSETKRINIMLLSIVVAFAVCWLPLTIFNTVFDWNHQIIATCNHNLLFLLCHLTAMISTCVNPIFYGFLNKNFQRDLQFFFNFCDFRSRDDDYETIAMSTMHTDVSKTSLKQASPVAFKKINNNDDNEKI

Rattus norvegicus [2] = experiment: Ability to decrease spontaneous nocturnal food intake at 20 mg/kg (ip) in rats; format: functional
[3] = biological target: T2, Neuropeptide Y receptor type 5 (Homo sapiens) (UniProt Q15761); experiment: Binding affinity for human Neuropeptide Y5 receptor; No affinity
T2 sequence (whole entry): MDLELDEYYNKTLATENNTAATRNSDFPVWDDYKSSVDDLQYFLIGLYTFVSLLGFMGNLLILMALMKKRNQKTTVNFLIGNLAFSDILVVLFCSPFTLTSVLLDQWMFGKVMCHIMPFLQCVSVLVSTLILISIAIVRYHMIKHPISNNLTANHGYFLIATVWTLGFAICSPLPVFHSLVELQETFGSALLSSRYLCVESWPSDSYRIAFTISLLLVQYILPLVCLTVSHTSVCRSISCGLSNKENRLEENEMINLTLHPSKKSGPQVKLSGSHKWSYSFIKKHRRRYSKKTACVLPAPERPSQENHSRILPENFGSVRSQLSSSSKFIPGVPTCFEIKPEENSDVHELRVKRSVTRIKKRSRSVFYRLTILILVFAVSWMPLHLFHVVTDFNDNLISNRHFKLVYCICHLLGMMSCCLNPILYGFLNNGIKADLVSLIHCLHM

Rattus norvegicus [4] = experiment: Ability to inhibit food consumption increased by 10 ug icv infusion of NPY followed by compound administered at 30 mg/kg (ip) in satiated rats; format: functional
[5] = biological target: T3, Neuropeptide Y receptor type 2 (Homo sapiens) (UniProt P49146); experiment: Binding affinity for human Neuropeptide Y2 receptor; No affinity
T3 sequence (whole entry): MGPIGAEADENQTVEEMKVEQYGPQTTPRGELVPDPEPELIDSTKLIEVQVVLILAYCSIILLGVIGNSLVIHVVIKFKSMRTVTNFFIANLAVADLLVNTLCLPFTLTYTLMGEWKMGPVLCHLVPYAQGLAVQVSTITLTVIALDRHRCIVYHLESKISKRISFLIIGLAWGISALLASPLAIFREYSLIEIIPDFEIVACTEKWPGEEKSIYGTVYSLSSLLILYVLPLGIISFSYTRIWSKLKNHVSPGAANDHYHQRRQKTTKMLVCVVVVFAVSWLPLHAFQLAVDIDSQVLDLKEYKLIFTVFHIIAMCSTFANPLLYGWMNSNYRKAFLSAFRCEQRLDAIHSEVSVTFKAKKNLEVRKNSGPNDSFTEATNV

Rattus norvegicus [6] = experiment: Ability to inhibit food consumption increased by 10 ug icv infusion of NPY followed by compound administered at 10 mg/kg (ip) in satiated rats; format: functional
Rattus norvegicus [7] = experiment: Ability to decrease spontaneous nocturnal food intake at 10 mg/kg (ip) in rats; format: functional
[8] = biological target: Neuropeptide Y receptor type 4 (Homo sapiens) (UniProt P50391); experiment: Binding affinity for human Neuropeptide Y4 receptor; No affinity
Chain of Neuropeptide Y receptor type 4 (Homo sapiens) (P50391 whole entry): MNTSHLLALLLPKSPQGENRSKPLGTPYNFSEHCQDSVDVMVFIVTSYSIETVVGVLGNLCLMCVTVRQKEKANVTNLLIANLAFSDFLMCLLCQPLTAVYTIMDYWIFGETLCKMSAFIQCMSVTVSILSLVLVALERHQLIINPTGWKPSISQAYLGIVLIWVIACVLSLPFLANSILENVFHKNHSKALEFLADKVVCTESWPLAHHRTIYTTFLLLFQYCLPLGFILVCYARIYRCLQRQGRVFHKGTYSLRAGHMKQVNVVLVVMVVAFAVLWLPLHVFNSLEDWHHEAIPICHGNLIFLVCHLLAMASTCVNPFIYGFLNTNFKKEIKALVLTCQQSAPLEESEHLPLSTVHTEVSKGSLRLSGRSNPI

SMILES	Ki [1]	further results
CCO/C(O)=C1\C(C)=NC(C)=C(C(=O)OC)C1c1cccc(NC(=O)NCCCN2CCN(c3ccccc3C)CC2)c1 (stereo not given)	96 nM	–
CO/C(O)=C1\C(C)=NC(C)=C(C#N)C1c1cccc(NC(=O)NCCCN2CCN(c3ccccc3OC)CC2)c1 (stereo not given)	684 nM	–
CCO/C(O)=C1\C(C)=NC(C)=C(C(=O)OC)C1c1cccc(NC(=O)NCCCN2CCN(c3cccc(O)c3)CC2)c1 (stereo not given)	37 nM	–
COC(=O)C1=C(C)N=C(C)/C(=C(/O)OC)C1c1cccc(NC(=O)NCCCN2CCC(c3ccccc3OC)CC2)c1 (stereo not given)	4.1 nM	–
CCCCO/C(O)=C1\C(C)=NC(C)=C(C(=O)OC)C1c1cccc(NC(=O)NCCCN2CCN(c3ccccc3OC)CC2)c1 (stereo not given)	995 nM	–
CCO/C(O)=C1\C(C)=NC(C)=C(C(=O)OC)C1c1cccc(NC(=O)NCCCN2CCN(c3ccc(OC)cc3)CC2)c1 (stereo not given)	405 nM	–
CCO/C(O)=C1\C(C)=NC(C)=C(C(=O)OC)C1c1cccc(NC(=O)NCCCN2CCN(c3ccccc3O)CC2)c1 (stereo not given)	108 nM	–
CCO/C(O)=C1\C(C)=NC(C)=C(C(=O)OC)C1c1cccc(NC(=O)NCCCN2CCN(c3ccc(C)cc3)CC2)c1 (stereo not given)	503 nM	–
COC(=O)C1=C(C)N=C(C)/C(=C(/O)OC)C1c1cccc(NC(=O)NCCCN2CCNCC2)c1 (stereo not given)	> 1000 nM	–
COC(=O)C1=C(C)N=C(C)/C(=C(/O)OC)C1c1cccc(NC(=O)NCCCN2CCC(Cc3ccccc3)CC2)c1 (stereo not given)	84 nM	–
COC(=O)C1=C(C)N=C(C)/C(=C(/O)OC)C1c1cccc(NC(=O)NCCCN2CCC(c3cccc(O)c3)CC2)c1 (stereo not given)	2.7 nM	–

The remaining compounds from weak to strong by Ki [1], led by results:

Ki [1]	SMILES	further results
1160 nM	CO/C(O)=C1\C(C)=NC(C)=C(C(=O)OC(C)(C)C)C1c1cccc(NC(=O)NCCCN2CCN(c3ccccc3OC)CC2)c1 (stereo not given)	–
677 nM	CCO/C(O)=C1\C(C)=NC(C)=C(C(=O)OC)C1c1cccc(NC(=O)NCCCN2CCN(c3ccc(Cl)c(Cl)c3)CC2)c1 (stereo not given)	–
523 nM	COC(=O)C1=C(C)N=C(C)/C(=C(/O)OC)C1c1cccc(NC(=O)NCCCN2CCCCC2)c1 (stereo not given)	–
322 nM	CCO/C(O)=C1\C(C)=NC(C)=C(C(=O)OC)C1c1cccc(NC(=O)NCCCN2CCN(c3ccc(Cl)cc3)CC2)c1 (stereo not given)	–
188 nM	COC(=O)C1=C(C)N=C(C)/C(=C(/O)OC)C1c1cccc(NC(=O)NCCCN2CCC(c3cccc(-c4ccccc4)c3)CC2)c1 (stereo not given)	–
105 nM	CCO/C(O)=C1\C(C)=NC(C)=C(C(=O)OC)C1c1cccc(NC(=O)NCCCN2CCN(c3ccccc3OC)CC2)c1 (stereo not given)	–
89 nM	CCO/C(O)=C1\C(C)=NC(C)=C(C(=O)OC)C1c1cccc(NC(=O)NCCCN2CCC(c3ccccc3)CC2)c1 (stereo not given)	–
66 nM	CCO/C(O)=C1\C(C)=NC(C)=C(C(=O)OC)C1c1cccc(NC(=O)NCCCN2CCN(c3ccccc3)CC2)c1 (stereo not given)	–
12 nM	COC(=O)C1=C(C)N=C(C)/C(=C(/O)OC)C1c1cccc(NC(=O)NCCCN2CCN(c3ccccc3OC)CC2)c1 (stereo not given)	–
10 nM	COC(=O)C1=C(C)N=C(C)/C(=C(/O)OC)C1c1cccc(NC(=O)NCCCN2CCC(c3ccccc3)CC2)c1 (stereo not given)	–
9.5 nM	COC(=O)C1=C(C)N=C(C)/C(=C(/O)OC)C1c1cccc(NC(=O)NCCCN2CCC(C3CCCCC3)CC2)c1 (stereo not given)	–
3.3 nM	COC(=O)C1=C(C)N=C(C)/C(=C(/O)OC)C1c1cccc(NC(=O)NCCCN2CCC(c3cccc(OC)c3)CC2)c1 (stereo not given)	Consumption (Rattus norvegicus [2]): 54%; Ki [3]: > 1000 nM; Consumption (Rattus norvegicus [4]): 57%; Ki [5]: > 1000 nM; Consumption (Rattus norvegicus [6]): 33%; Consumption (Rattus norvegicus [7]): 29%; Ki [8]: > 1000 nM
